Calls of active or inactive are those of the source. No rule for the calls is given here.

These results are taken from PubChem BioAssay AID1259408 (Genetic Toxicology Data Bank (GENE-TOX), 2018).

This data set concerns GENE-TOX genotoxicity assays, various organisms and cells. Kind of data set: GENE-TOX mutagenicity studies. To be noted: for call: Assay Type: In vivo carcinogenicity studies.
Setting [1] is: Species/Cell Type: Human, Assay Type: Sister-chromatid exchange (SCE) in vitro, Assay Code: SC1+D, Dose Response: With dose response, Evaluation Type: Evaluation B (Post-1980).
[2] abbreviates: Species/Cell Type: Saccharomyces cerevisiae, Assay Type: Mitotic recombination or gene conversion, Assay Code: YEH+, Evaluation Type: Evaluation A (Pre-1980).

For `O=P1(N(CCCl)CCCl)NCCCO1` (configuration not stated), the mutagenic call (Species/Cell Type: Arabidopsis species, Assay Type: Gene mutation, Assay Code: ARM-, Evaluation Type: Evaluation A (Pre-1980)) was “inactive; negative”; the mutagenic call (Species/Cell Type: Chinese hamster ovary (CHO) cells, Assay Type: Forward gene mutation at the HPRT locus, Assay Code: CHO+*, Activation: With metabolic activation, Evaluation Type: Evaluation B (Post-1980)) was “active; positive”; the mutagenic call (Species/Cell Type: Drosophila melanogaster, Assay Type: Sex-linked recessive lethal gene mutation, Assay Code: SRL+, Evaluation Type: Evaluation A (Pre-1980)) was “active; positive”; the mutagenic call (Species/Cell Type: Escherichia coli WP2, Assay Type: Tryptophan reverse gene mutation, Assay Code: WP2+, Evaluation Type: Evaluation A (Pre-1980)) is “active; positive”; the mutagenic call (Species/Cell Type: Escherichia coli WP2 UVRA, Assay Type: Tryptophan reverse gene mutation, Assay Code: WPU+, Evaluation Type: Evaluation A (Pre-1980)) is “active; positive”; the mutagenic call (Species/Cell Type: Escherichia coli polA (W3110 vs P3478), Assay Type: Rec-assay, DNA effects (bacterial DNA repair), Assay Code: RE2+, Evaluation Type: Evaluation A (Pre-1980)) was “active; positive”. Further, the mutagenic call (Species/Cell Type: F1 mouse, Sex: Male, Assay Type: Sperm morphology, Assay Code: SPF+, Evaluation Type: Evaluation A (Pre-1980)) is “active; positive”; the mutagenic call (Species/Cell Type: Fischer rat embryo (RLV/1706) cells, Assay Type: Cell transformation, viral enhanced, Assay Code: CTR+, Evaluation Type: Evaluation A (Pre-1980)) is “active; positive”; the mutagenic call (Species/Cell Type: Human bone marrow, Assay Type: Chromosome aberrations in vivo, Assay Code: CY5+, Evaluation Type: Evaluation A (Pre-1980)) is “active; positive”; the mutagenic call (Species/Cell Type: Human cell culture, Assay Type: Chromosome aberrations in vitro, Assay Code: CYZ+, Evaluation Type: Evaluation A (Pre-1980)) was “active; positive”; the mutagenic call (Species/Cell Type: Human diploid fibroblasts, Assay Type: Unscheduled DNA synthesis (UDS) in vitro, DNA effects, Assay Code: UDHT, Evaluation Type: Evaluation A (Pre-1980)) is “no conclusion”; the mutagenic call (Species/Cell Type: Human lymphocytes or leukocytes, Assay Type: Chromosome aberrations in vitro, Assay Code: CY7+D, Dose Response: With dose response, Evaluation Type: Evaluation A (Pre-1980)) was “active; positive”. Besides, the mutagenic call was “active; positive” (Species/Cell Type: Human lymphocytes or leukocytes, Assay Type: Chromosome aberrations in vivo, Assay Code: CY8+, Evaluation Type: Evaluation A (Pre-1980)); “active; positive” (Species/Cell Type: Human lymphocytes, Assay Type: Sister-chromatid exchange (SCE) in vitro, Assay Code: SCL+D, Dose Response: With dose response, Evaluation Type: Evaluation B (Post-1980)); “no conclusion” (Species/Cell Type: Human lymphocytes, Assay Type: Sister-chromatid exchange (SCE) in vitro, Assay Code: SCLT, Evaluation Type: Evaluation A (Pre-1980)); “active; positive” (Species/Cell Type: Human lymphocytes, Assay Type: Sister-chromatid exchange (SCE) in vivo, Assay Code: SCY+, Evaluation Type: Evaluation B (Post-1980)); “active; positive” under setting [1]; “active; positive” (Species/Cell Type: Human, Sex: Male, Assay Type: Sperm morphology, Assay Code: SPH+, Evaluation Type: Evaluation A (Pre-1980)). The mutagenic call is, setting by setting: (Species/Cell Type: Mammalian germ cells, Sex: Male, Assay Type: Chromosome aberrations in vivo, Assay Code: CY9+, Evaluation Type: Evaluation A (Pre-1980)) “active; positive”; (Species/Cell Type: Mammalian oocytes or early embryo, Assay Type: Chromosome aberrations in vivo, Assay Code: CYO+D, Dose Response: With dose response, Evaluation Type: Evaluation A (Pre-1980)) “active; positive”; (Species/Cell Type: Mammalian polychromatic erythrocytes, Assay Type: Micronucleus test, chromosome aberrations, Assay Code: MNT+, Evaluation Type: Evaluation A (Pre-1980)) “active; positive”; (Species/Cell Type: Mouse (BALB/c-3T3) cells, Assay Type: Cell transformation, Assay Code: CTB-, Evaluation Type: Evaluation A (Pre-1980)) “inactive; negative”; (Species/Cell Type: Mouse (C3H/10T1/2) cells, Assay Type: Cell transformation, Assay Code: CTH+D*, Activation: With metabolic activation, Dose Response: With dose response, Evaluation Type: Evaluation A (Pre-1980)) “active; positive”; (Species/Cell Type: Mouse germ cells, Sex: Male, Assay Type: Unscheduled DNA synthesis (UDS) in vivo, DNA effects, Assay Code: UDT+, Evaluation Type: Evaluation A (Pre-1980)) “active; positive”. Moreover, the mutagenic call was “active; positive” (Species/Cell Type: Mouse lymphoma (L5178Y) cells, Assay Type: Forward gene mutation at the thymidine kinase (TK) locus, chromosome aberrations, Assay Code: L51+*, Activation: With metabolic activation, Evaluation Type: Evaluation A (Pre-1980)); “active; positive” (Species/Cell Type: Mouse, Sex: Female, Assay Type: Spot test, gene mutation, Assay Code: MST+, Evaluation Type: Evaluation A (Pre-1980)); “active; positive” (Species/Cell Type: Mouse, Sex: Male, Assay Type: Heritable translocation test, chromosome aberrations, Assay Code: HTT+, Evaluation Type: Evaluation A (Pre-1980)); “active; positive” (Species/Cell Type: Mouse, Sex: Male, Assay Type: Specific locus test, gene mutation, Assay Code: SLT+, Evaluation Type: Evaluation A (Pre-1980)); “active; positive” (Species/Cell Type: Mouse, Sex: Male, Assay Type: Sperm morphology, Assay Code: SPI+, Evaluation Type: Evaluation A (Pre-1980)); “active; positive” (Species/Cell Type: Nonhuman bone marrow, Assay Type: Chromosome aberrations, in vivo, Assay Code: CY#+D, Dose Response: With dose response, Evaluation Type: Evaluation A (Pre-1980)). Further, the mutagenic call reads like this: (Species/Cell Type: Nonhuman, Assay Type: Sister-chromatid exchange (SCE) in vitro, Assay Code: SC2+D, Dose Response: With dose response, Evaluation Type: Evaluation A (Pre-1980)) “active; positive”; (Species/Cell Type: Nonhuman, Assay Type: Sister-chromatid exchange (SCE) in vivo, Assay Code: SC3+D, Dose Response: With dose response, Evaluation Type: Evaluation A (Pre-1980)) “active; positive”; (Species/Cell Type: Rabbit, Sex: Male, Assay Type: Sperm morphology, Assay Code: SPRT, Evaluation Type: Evaluation A (Pre-1980)) “no conclusion”; (Species/Cell Type: Rat, Sex: Male, Assay Type: Sperm morphology, Assay Code: SPA+, Evaluation Type: Evaluation A (Pre-1980)) “active; positive”; (Species/Cell Type: Rodents, Sex: Male, Assay Type: Dominant lethal test, Assay Code: DLT+D, Dose Response: With dose response, Evaluation Type: Evaluation A (Pre-1980)) “active; positive”; (Species/Cell Type: Saccharomyces cerevisiae, Assay Type: Forward gene mutation, Assay Code: YEF+, Evaluation Type: Evaluation A (Pre-1980)) “active; positive”. Moreover, the mutagenic call is “active; positive” (Species/Cell Type: Saccharomyces cerevisiae, Assay Type: Mitotic recombination or gene conversion, Assay Code: YEC+*, Activation: With metabolic activation, Evaluation Type: Evaluation A (Pre-1980)); “active; positive” under setting [2]; “active; positive” (Species/Cell Type: Saccharomyces cerevisiae, Assay Type: Reverse gene mutation, Assay Code: YER+, Evaluation Type: Evaluation A (Pre-1980)); “active; positive” (Species/Cell Type: Salmonella typhimurium (one or more of the five standard strains: TA98, TA100, TA1535, TA1537, and TA1538), Assay Type: Histidine reverse gene mutation, Ames assay, Assay Code: SAL+*, Activation: With metabolic activation, Evaluation Type: Evaluation A (Pre-1980)); “active; positive” (Species/Cell Type: Salmonella typhimurium, Escherichia coli, Serratia marcesens, human lymphoid cells, Saccharomyces cerevisiae, Chinese ha, Assay Type: Forward and reverse gene mutation, mitotic recombination and gene conversion, DNA effects, chromosome aberrations, host-, Assay Code: HM6+, Evaluation Type: Evaluation A (Pre-1980)); “active; positive” (Species/Cell Type: Salmonella typhimurium, Saccharomyces cerevisiae, human leukocytes and diploid fibroblasts, Assay Type: Forward and reverse gene mutation, mitotic recombination and gene conversion, DNA effects, body fluid assay, Assay Code: BFJ+, Evaluation Type: Evaluation A (Pre-1980)). In addition, the call (Species/Cell Type: Nonhuman, Assay Code: CCG+, Evaluation Type: Evaluation A (Pre-1980)) was “active; positive”.

On to `CNC(N)=O`, for which the mutagenic call is “no conclusion” (Species/Cell Type: Human lymphocytes, Assay Type: Sister-chromatid exchange (SCE) in vitro, Assay Code: SCLT, Evaluation Type: Evaluation B (Post-1980)); “no conclusion” (Species/Cell Type: Human, Assay Type: Sister-chromatid exchange (SCE) in vitro, Assay Code: SC1T, Evaluation Type: Evaluation B (Post-1980)); “active; positive” (Species/Cell Type: Salmonella typhimurium, Assay Type: Forward and reverse gene mutation, host-mediated assay, Assay Code: HMA+, Evaluation Type: Evaluation A (Pre-1980)).

`c1ccc2c(c1)cc1c3c2ccc2cccc(c23)C2OC12` (configuration not stated): the mutagenic call is, setting by setting: (Species/Cell Type: Chinese hamster lung (V79) cells, Assay Type: Forward gene mutation at the HPRT or ouabain locus, Assay Code: V79+, Evaluation Type: Evaluation A (Pre-1980)) “active; positive”; (Species/Cell Type: Human diploid fibroblasts, Assay Type: Unscheduled DNA synthesis (UDS) in vitro, DNA effects, Assay Code: UDH+, Evaluation Type: Evaluation A (Pre-1980)) “active; positive”; under setting [1], “active; positive”; (Species/Cell Type: Mouse prostate cells, Assay Type: Cell transformation, Assay Code: CTM+, Evaluation Type: Evaluation A (Pre-1980)) “active; positive”; (Species/Cell Type: Nonhuman, Assay Type: Sister-chromatid exchange (SCE) in vitro, Assay Code: SC2+D, Dose Response: With dose response, Evaluation Type: Evaluation B (Post-1980)) “active; positive”; under setting [2], “active; positive”. Moreover, the mutagenic call was “active; positive” (Species/Cell Type: Salmonella typhimurium (one or more of the five standard strains: TA98, TA100, TA1535, TA1537, and TA1538), Assay Type: Histidine reverse gene mutation, Ames assay, Assay Code: SAL+, Evaluation Type: Evaluation A (Pre-1980)); “active; positive” (Species/Cell Type: Syrian hamster embryo (SHE) cells, Assay Type: Cell transformation, clonal assay, Assay Code: CTC+, Evaluation Type: Evaluation A (Pre-1980)). In addition, the call (Species/Cell Type: Nonhuman, Assay Code: CCGT, Evaluation Type: Evaluation A (Pre-1980)) is given as “no conclusion”.

With `C=CC1CO1` (configuration not stated), the mutagenic call (Species/Cell Type: Nonhuman, Assay Type: Sister-chromatid exchange (SCE) in vivo, Assay Code: SC3+D, Dose Response: With dose response, Evaluation Type: Evaluation B (Post-1980)) is “active; positive”.

Consider `OCC(F)(F)F`, for which, where the note is “Species/Cell Type: Salmonella typhimurium (one or more of the five standard strains: TA98, TA100, TA1535, TA1537, and TA1538), Assay Type: Histidine reverse gene mutation, Ames assay, Assay Code: SALT, Evaluation Type: Evaluation A (Pre-1980)”, the mutagenic call was “no conclusion”.
